Laboratory results from PubChem BioAssay AID2060512 (Molecular Pharmacology Branch, DTP, NCI, 2025).
pIC50: −log10 of the molar value.

Tested on: 186277-243-T-J2-PDC complex spheroid viability
Assay: Anticancer human tumor 186277-243-T-J2-PDC patient-derived colon adenocarcinoma cell line growth inhibition [GQUAD]
Settings: for pIC50: curve of first compound; for viability, T/C: stronger effect = lower value; active means viability on the fitted dose curve at most 10% of control; inactive means the rest
Description: DNA G-quadruplex Stabilizer Agents in Combinations in Complex Spheroids
A high-throughput screen of multi-cell type tumor spheroids was designed to identify active combinations of DNA G-quadruplex stabilizer agents and targeted small molecules. Complex spheroids include a stromal component modeled by human endothelial cells (HUVEC) and fibroblasts modeled by human mesenchymal stem cells (MSCs). The concentration ranges selected for each drug and investigational agent were based upon clinically achievable concentrations if the clinical Cmax of the agent was known.
Compounds. The drugs and investigational agents: pidnarulex (CX-5461; NSC782164), APTO-253 (NSC789042), BRACO-19 (NSC847499), peposertib (NSC802822), ceralasertib (NSC780249), elimusertib (NSC800525), camonsertib (NSC841442), AZD-1390 (NSC803789), olaparib (NSC753686), talazoparib (NSC767125), ART-558 (NSC835418), sotorasib (NSC818433), MRTX-1133 (NSC836407), SN-38 (NSC673596), topotecan (NSC609699), etoposide (NSC141540), doxorubicin (NSC123127), gemcitabine (NSC613327), 5-fluorouracil (NSC19893), paclitaxel (NSC125973), vemurafenib (NSC761431), panobinostat (NSC761190), R-306465 (JNJ-16241199; NSC773264), adavosertib (NSC754352), TP-3654 (NSC805149), carboplatin (NSC241240), KSQ-4279 (NSC840948), and staurosporine (NSC755774) were obtained from the National Cancer Institute (NCI) Developmental Therapeutics Program Chemical Repository (34). The FDA-approved anticancer drug set is available from the NCI Developmental Therapeutics Program. […] The stock solutions were prepared in dimethyl sulfoxide (DMSO, Sigma-Aldrich, St. Louis, MO, cat. D2650) at 800-fold the tested concentration and stored at -70 degrees C prior to their use. All drugs and investigational agents were tested over a range starting from a high concentration at or near the clinical Cmax and decreasing in half-log increments. If the clinical Cmax for an agent had not been determined, the highest concentration tested was 10 microM.
2.3 Cell Culture. All cells were maintained in an incubator at 37 degrees C and 5% CO2 with 95% humidity. The PDC lines were cultured according to standard operating procedures established by the NCI PDMR. All PDCs were thawed and cultured in Matrigel-coated flasks prepared with a working solution of 1X Ham's F-12 nutrient mix, without supplementation (Invitrogen, cat. 11765054), 100 U/mL penicillin-streptomycin (Invitrogen, cat. 15140122), and 2.5% Matrigel (Corning Inc., cat. 354248) for the first three passages. The 857933-349-R-J2-PDC line was cultured in 6C/Colon 1B media, which includes advanced DMEM/F-12 (Thermo Fisher Scientific, cat. 12634028), 10 mM HEPES (Thermo Fisher Scientific, cat. 15630080), 1X GlutaMAX supplement (Thermo Fisher Scientific, cat. 35050061), 0.1 mg/mL primocin (InvivoGen, cat. ant-pm-2), 10% defined fetal bovine serum, heat inactivated (HyClone Laboratories Inc., cat. SH30070.03HI), 50% L-WRN conditioned media (ATCC, cat. CRL-3276), 1.25 mM N-Acetyl-L-cysteine (Sigma-Aldrich, cat. A9165), 10 mM nicotinamide (Sigma-Aldrich, cat. N0636), 1X B-27 supplement (Thermo Fisher Scientific, cat. 17504044), 1X N-2 supplement (Thermo Fisher Scientific, cat. 17502048), 10 microM Y-27632 dihydrochloride (Tocris Bioscience, cat. 1254), and 50 ng/mL human EGF recombinant protein (Thermo Fisher Scientific, cat. PHG0311). The 485176-168-R4-J1-PDC line was cultured in Panc media, which includes all 6C/Colon 1B media components plus 100 ng/mL human FGF-10 (Thermo Fisher Scientific, cat. 100-26), 500 nM SB-431542 (Selleckchem, cat. S1067), and gastrin (Tocris, cat. 3006).
[…]

[1] = second compound 0.0316 µM, first compound 0.0316 µM
[2] = second compound 0.0316 µM, first compound 0.1 µM
[3] = second compound 0.0316 µM, first compound 0.316 µM
[4] = second compound 0.0316 µM, first compound 1 µM
[5] = second compound 0.0316 µM, first compound 3.16 µM
[6] = second compound 0.0316 µM, first compound 10 µM
[7] = second compound 0.1 µM, first compound 0.0316 µM
[8] = second compound 0.1 µM, first compound 0.1 µM
[9] = second compound 0.1 µM, first compound 0.316 µM
[10] = second compound 0.1 µM, first compound 1 µM
[11] = second compound 0.1 µM, first compound 3.16 µM
[12] = second compound 0.1 µM, first compound 10 µM
[13] = second compound 0.316 µM, first compound 0.0316 µM
[14] = second compound 0.316 µM, first compound 0.1 µM
[15] = second compound 0.316 µM, first compound 0.316 µM
[16] = second compound 0.316 µM, first compound 1 µM
[17] = second compound 0.316 µM, first compound 3.16 µM
[18] = second compound 0.316 µM, first compound 10 µM
[19] = second compound 1 µM, first compound 0.0316 µM
[20] = second compound 1 µM, first compound 0.1 µM
[21] = second compound 1 µM, first compound 0.316 µM
[22] = second compound 1 µM, first compound 1 µM
[23] = second compound 1 µM, first compound 3.16 µM
[24] = second compound 1 µM, first compound 10 µM
[25] = second compound 3.16 µM, first compound 0.0316 µM
[26] = second compound 3.16 µM, first compound 0.1 µM
[27] = second compound 3.16 µM, first compound 0.316 µM
[28] = second compound 3.16 µM, first compound 1 µM
[29] = second compound 3.16 µM, first compound 3.16 µM
[30] = second compound 3.16 µM, first compound 10 µM
[31] = second compound 10 µM, first compound 0.0316 µM
[32] = second compound 10 µM, first compound 0.1 µM
[33] = second compound 10 µM, first compound 0.316 µM
[34] = second compound 10 µM, first compound 1 µM
[35] = second compound 10 µM, first compound 3.16 µM
[36] = second compound 10 µM, first compound 10 µM
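Further: spheroids exposed to drugs for 7 days.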

CC(C)n1c(=O)n(C)c2cnc3cc(F)c(-c4ccc(OCCCN5CCCCC5)nc4)cc3c21 + CN(C)c1ccc(Nc2c3ccc(NC(=O)CCN4CCCC4)cc3nc3cc(NC(=O)CCN4CCCC4)ccc23)cc1
inactive: viability, T/C [1] 94.4% | viability, T/C [2] 108% | viability, T/C [3] 91.8% | viability, T/C [4] 98.1% | viability, T/C [5] 109% | viability, T/C [6] 97.9% | viability, T/C [7] 110% | viability, T/C [8] 105% | viability, T/C [9] 102% | viability, T/C [10] 110% | viability, T/C [11] 114% | viability, T/C [12] 95.3% | viability, T/C [13] 97.9% | viability, T/C [14] 115% | viability, T/C [15] 103% | viability, T/C [16] 98.3% | viability, T/C [17] 122% | viability, T/C [18] 93.7% | viability, T/C [19] 132% | viability, T/C [20] 87% | viability, T/C [21] 97.6% | viability, T/C [22] 100% | viability, T/C [23] 111% | viability, T/C [24] 86.1% | viability, T/C [25] 101% | viability, T/C [26] 84.9% | viability, T/C [27] 97.2% | viability, T/C [28] 118% | viability, T/C [29] 119% | viability, T/C [30] 84.8% | viability, T/C [31] 118% | viability, T/C [32] 96.8% | viability, T/C [33] 112% | viability, T/C [34] 88.8% | viability, T/C [35] 66.4% | viability, T/C [36] 37.8%
< 5.00: pIC50 (second compound 0.0316 µM) | pIC50 (second compound 0.1 µM) | pIC50 (second compound 0.316 µM) | pIC50 (second compound 1 µM) | pIC50 (second compound 3.16 µM)
5.21: pIC50 (second compound 10 µM)

CC1COCCN1c1cc(-c2ccnn2C)c2ccnc(-c3ccn[nH]3)c2n1 (centres undefined) + CN(C)c1ccc(Nc2c3ccc(NC(=O)CCN4CCCC4)cc3nc3cc(NC(=O)CCN4CCCC4)ccc23)cc1
active: viability, T/C [3] 6.8% | viability, T/C [4] 5.06% | viability, T/C [5] 4.62% | viability, T/C [6] 5.21% | viability, T/C [9] 6.89% | viability, T/C [10] 4.08% | viability, T/C [11] 5.19% | viability, T/C [12] 5.02% | viability, T/C [15] 5.74% | viability, T/C [16] 4.54% | viability, T/C [17] 5.22% | viability, T/C [18] 5.43% | viability, T/C [21] 6.08% | viability, T/C [22] 4.26% | viability, T/C [23] 5.15% | viability, T/C [24] 4.9% | viability, T/C [27] 6.06% | viability, T/C [28] 4.8% | viability, T/C [29] 4.59% | viability, T/C [30] 4.41% | viability, T/C [33] 5.91% | viability, T/C [34] 4.1% | viability, T/C [35] 4.19% | viability, T/C [36] 4.01%
7.39: pIC50 (second compound 3.16 µM)
7.29: pIC50 (second compound 0.0316 µM) | pIC50 (second compound 0.316 µM)
7.49: pIC50 (second compound 10 µM)
inactive: viability, T/C [1] 77.7% | viability, T/C [2] 12.4% | viability, T/C [7] 68.3% | viability, T/C [8] 13.6% | viability, T/C [13] 76.5% | viability, T/C [14] 12.4% | viability, T/C [19] 49.3% | viability, T/C [20] 12.6% | viability, T/C [25] 60.6% | viability, T/C [26] 13.1% | viability, T/C [31] 51% | viability, T/C [32] 12.1%
> 7.50: pIC50 (second compound 1 µM)
7.33: pIC50 (second compound 0.1 µM)
